From US20230085307A1, “PYRIDAZINONE COMPOUND AND HERBICIDE” (NISSAN CHEMICAL CORPORATION, priority 2019, published 2023)

Experiments:
chickweed = experiment: Test Example 5: herbicidal effect by foliage application, plastic box (Table 20, symbol P); format: in vivo, common chickweed (Stellaria media); details: foliage application, 320 g/ha, three weeks after application
How it was run: (§1)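 Sow seeds spot-wise in sterilized diluvial soil; cover with ~1.5 cm soil. Grow 14 days in greenhouse, 25° C. to 30° C. Spray foliage with emulsion diluted to predetermined amount. Rate effect after 3 weeks.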

velvetleaf = experiment: Test Example 5: herbicidal effect by foliage application, plastic box (Table 20, symbol M); format: in vivo, velvetleaf (Abutilon theophrasti); details: foliage application, 320 g/ha, three weeks after application
How it was run: as §1

green foxtail = experiment: Test Example 5: herbicidal effect by foliage application, plastic box (Table 20, symbol G); format: in vivo, green foxtail (Setaria viridis); details: foliage application, 320 g/ha, three weeks after application
How it was run: as §1

Chinese sprangletop = experiment: Test Example 3: herbicidal effect by foliage application, Wagner pot (Table 18, symbol D); format: in vivo, chinese sprangletop (Leptochloa chinensis); details: 320 g/ha
How it was run: (§2)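 Plants were sown in alluvial soil held under 0.1–0.5 cm standing water and grown 14 days in a greenhouse at 25–30 °C. An emulsifiable formulation, water-diluted to the set dose, was then sprayed onto the foliage, and effects were scored three weeks later using previously defined criteria.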

southern crabgrass = experiment: Test Example 5: herbicidal effect by foliage application, plastic box (Table 20, symbol F); format: in vivo, southern crabgrass (Digitaria ciliaris); details: foliage application, 320 g/ha, three weeks after application
How it was run: as §1

barnyard grass [1] = experiment: Test Example 5: herbicidal effect by foliage application, plastic box (Table 20, symbol H); format: in vivo, barnyard grass (Echinochloa crus-galli); details: foliage application, 320 g/ha, three weeks after application
How it was run: as §1

oval-leafed pondweed [2] = experiment: Test Example 2: herbicidal activity, application during weed generation under submerged conditions (Table 17, symbol C); format: in vivo, oval-leafed pondweed (Monochoria vaginalis); details: AAH 320 g/ha; application during weed generation, submerged conditions
How it was run: (§3)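 Mixed weed seedlings in alluvial soil under a 4 cm water layer, greenhouse-grown at 25–30° C. Compound given as a diluted emulsion into the floodwater at the 1–2 leaf stage; response graded after three weeks.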

oval-leafed pondweed [3] = experiment: Test Example 1: herbicidal activity, application before weed generation under submerged conditions (Table 16, symbol C); format: in vivo, oval-leafed pondweed (Monochoria vaginalis); details: amount of applied herbicide 320 g/ha
How it was run: (§4)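 Submerged Wagner pots (alluvial soil, 4 cm water) sown with weed seeds and planted with 2.5-leaf rice seedlings; emulsifiable concentrate diluted in water applied to water surface on sowing day. Held in greenhouse at 25-30 °C; injury scored 0-5 by herbicidal rate after three weeks.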

late watergrass [4] = experiment: Test Example 2: herbicidal activity, application during weed generation under submerged conditions (Table 17, symbol A); format: in vivo, late watergrass (Echinochloa oryzicola); details: AAH 320 g/ha; application during weed generation, submerged conditions
How it was run: as §3

lambsquarters = experiment: Test Example 5: herbicidal effect by foliage application, plastic box (Table 20, symbol O); format: in vivo, lambsquarters (Chenopodium album); details: foliage application, 320 g/ha, three weeks after application
How it was run: as §1

wild oat = experiment: Test Example 5: herbicidal effect by foliage application, plastic box (Table 20, symbol I); format: in vivo, wild oat (Avena fatua); details: foliage application, 320 g/ha, three weeks after application
How it was run: as §1

late watergrass [5] = experiment: Test Example 1: herbicidal activity, application before weed generation under submerged conditions (Table 16, symbol A); format: in vivo, late watergrass (Echinochloa oryzicola); details: amount of applied herbicide 320 g/ha
How it was run: as §4

Japanese bulrush [6] = experiment: Test Example 2: herbicidal activity, application during weed generation under submerged conditions (Table 17, symbol B); format: in vivo, Japanese bulrush (Schoenoplectus juncoides); details: AAH 320 g/ha; application during weed generation, submerged conditions
How it was run: as §3

barnyard grass [7] = experiment: Test Example 3: herbicidal effect by foliage application, Wagner pot (Table 18, symbol H); format: in vivo, barnyard grass (Echinochloa crus-galli); details: 320 g/ha
How it was run: as §2

Italian ryegrass = experiment: Test Example 5: herbicidal effect by foliage application, plastic box (Table 20, symbol K); format: in vivo, Italian ryegrass (Lolium multiflorum); details: foliage application, 320 g/ha, three weeks after application
How it was run: as §1

false cleavers = experiment: Test Example 5: herbicidal effect by foliage application, plastic box (Table 20, symbol Q); format: in vivo, false cleavers (Galium spurium); details: foliage application, 320 g/ha, three weeks after application
How it was run: as §1

persian speedwell = experiment: Test Example 5: herbicidal effect by foliage application, plastic box (Table 20, symbol R); format: in vivo, Persian speedwell (Veronica persica); details: foliage application, 320 g/ha, three weeks after application
How it was run: as §1

rice flat sedge = experiment: Test Example 3: herbicidal effect by foliage application, Wagner pot (Table 18, symbol E); format: in vivo, rice flat sedge (Cyperus iria); details: 320 g/ha
How it was run: as §2

blackgrass = experiment: Test Example 5: herbicidal effect by foliage application, plastic box (Table 20, symbol J); format: in vivo, blackgrass (Alopecurus myosuroides); details: foliage application, 320 g/ha, three weeks after application
How it was run: as §1

Japanese bulrush [8] = experiment: Test Example 1: herbicidal activity, application before weed generation under submerged conditions (Table 16, symbol B); format: in vivo, Japanese bulrush (Schoenoplectus juncoides); details: amount of applied herbicide 320 g/ha
How it was run: as §4

CCCC(=O)Oc1c(C)nn(C)c(=O)c1-c1c(-c2ccc(F)cc2OC)sc2cc(C)ccc12 [3-056]
P: chickweed, herbicidal effect grade (chickweed): 5 (Herbicidal rate of 90% or more (almost completely withered))
M: velvetleaf, herbicidal effect grade (velvetleaf): 2 (Herbicidal rate of 20% or more and less than 40%)
G: green foxtail, herbicidal effect grade (green foxtail): 4 (Herbicidal rate of 70% or more and less than 90%)
herbicidal effect on Chinese sprangletop (D) (Chinese sprangletop): 1 (Herbicidal rate of 5% or more and less than 20%)
F: southern crabgrass, herbicidal effect grade (southern crabgrass): 3 (Herbicidal rate of 40% or more and less than 70%)
H: barnyard grass, herbicidal effect grade (barnyard grass [1]): 3 (Herbicidal rate of 40% or more and less than 70%)
herbicidal effect rating, C: oval-leafed pondweed (oval-leafed pondweed [2]): 0 (Herbicidal rate of 5% or less (almost no effect))
Herbicidal effect, C: oval-leafed pondweed (oval-leafed pondweed [3]): 0 (Herbicidal rate of 5% or less (almost no effect))
herbicidal effect rating, A: late watergrass (late watergrass [4]): 2 (Herbicidal rate of 20% or more and less than 40%)
O: lambsquarters, herbicidal effect grade (lambsquarters): 2 (Herbicidal rate of 20% or more and less than 40%)
I: wild oat, herbicidal effect grade (wild oat): 3 (Herbicidal rate of 40% or more and less than 70%)
Herbicidal effect, A: late watergrass (late watergrass [5]): 3 (Herbicidal rate of 40% or more and less than 70%)
herbicidal effect rating, B: Japanese bulrush (Japanese bulrush [6]): 0 (Herbicidal rate of 5% or less (almost no effect))
herbicidal effect on barnyard grass (H) (barnyard grass [7]): 3 (Herbicidal rate of 40% or more and less than 70%)
K: Italian ryegrass, herbicidal effect grade (Italian ryegrass): 3 (Herbicidal rate of 40% or more and less than 70%)
Q: false cleavers, herbicidal effect grade (false cleavers): 4 (Herbicidal rate of 70% or more and less than 90%)
R: persian speedwell, herbicidal effect grade (persian speedwell): 5 (Herbicidal rate of 90% or more (almost completely withered))
herbicidal effect on rice flat sedge (E) (rice flat sedge): 3 (Herbicidal rate of 40% or more and less than 70%)
J: blackgrass, herbicidal effect grade (blackgrass): 2 (Herbicidal rate of 20% or more and less than 40%)
Herbicidal effect, B: Japanese bulrush (Japanese bulrush [8]): 0 (Herbicidal rate of 5% or less (almost no effect))
